Assay results reported in ChEMBL document CHEMBL1157453, “Chrobisiamone A, a new bischromone from Cassia siamea and a biomimetic transformation of 5-acetonyl-7-hydroxy-2-methylchromone into cassiarin A” (Bioorg Med Chem Lett, 2008).
≈ marks a conversion by molar mass, not a printed value.

test system: Plasmodium falciparum; test: Antiplasmodial activity against Plasmodium falciparum 3D7; assay type: functional, organism-based

IC50 | SMILES
2.6 µg/mL (≈ 5.6 µM) | CC(=O)Cc1cc(O)cc2c1C(=O)CC(C)(Cc1cc(=O)c3c(CC(C)=O)cc(O)cc3o1)O2 (stereo not drawn) [CHROBISIAMONE A]
7.8 µg/mL (≈ 36.4 µM) | Cc1cc2cc(=O)cc3oc(C)cc(o1)c23 [ANHYDROBARAKOL]
4.5 µg/mL (≈ 19.4 µM) | CC(=O)Cc1cc(O)cc2oc(C)cc(=O)c12
